Experimental findings from patent US20220362279A1, “USE OF OLIGONUCLEOTIDES FOR THE TREATMENT AND PREVENTION OF PAIN” (CONSEJO NACIONAL DE INVESTIGACIONES CIENTÍFICAS Y TÉCNICAS, priority 2018, published 2022) are described below.

SMILES strings stand for the structures. Where a name gives a salt, the structure may show the parent alone.

Assay [1] relates to rats with postsurgical pain (plantar incision). The assay can be described thus: Naloxone challenge in IMT504-pre-treated rats with plantar incision, mechanical withdrawal threshold. The assay is classed as in vivo, rat. To be noted: IMT504-treated injured rats; naloxone 2 mg/kg i.p. on day 3 after injury.
Protocol: In all experiments, the oligodeoxynucleotide (ODN) IMT504, with sequence 5′-[sequence]-3′ (SEQ ID No 1) was used. The HPLC-grade phosphorothioate ODN (Biosynthesis Inc., Lewisville, Tex., USA) was suspended in sterile saline solution (VEH, 0.9% NaCl; 20 mg/ml; storage concentration) and assayed for LPS contamination. Working concentration doses (6 mg/kg) were obtained by additional dissolving in sterile VEH. The ODN was administered subcutaneously, at a final volume of 200-300 μl, depending on animal weight.
A group of rats also received an intraperitoneal (i.p.) injection of naloxone hydrochloride (Narxona 0.4 mg/ml; Scott-Cassara, Bs. As., Argentina), at a dose of 2 mg/kg, in order to test if the effect of IMT504 could be blocked by the pan-opioid receptor antagonist.
The rat hind paw plantar incision model of postoperative pain was used as previously described [Brennan, T. J., E. P. Vandermeulen, and G. F. Gebhart, Characterization of a rat model of incisional pain. […] Briefly, rats were anesthetized using isoflurane (5% induction, 2.5% maintenance, 0.8 l/min O2 flow rate; Piramal Healthcare, UK) and the plantar aspect of the right hind paw was disinfected with povidone iodine. A 1.0-cm longitudinal incision was made 0.5 cm from the end of the heel. The underlying flexor muscle was also incised longitudinally, allowing the muscle origin and insertion to remain intact. After hemostasis by gentle pressure, the skin was closed with sutures of 5-0 nylon.
Rats were divided into injured rats receiving IMT504 (6 mg/kg, dissolved in VEH) or VEH alone, 48h and 24 h prior to surgery. […]
Mechanical withdrawal thresholds were assessed by using von Frey nylon monofilaments of different bending forces (1.4, 2, 6, 8, 10, 15 and 26 g; Stoelting Inc., Wooddale, USA) and the modified up-down method of Dixon, as described by Chaplan and cols. (Chaplan, S. R., et al., Quantitative assessment of tactile allodynia in the rat paw. J Neurosci Methods, 1994. 53(1): p. 55-63) , to establish the 50% withdrawal threshold. […]
Assay [2] shares this test system. The assay can be described thus: Opioid sparing: morphine in VEH- or IMT504-pre-treated rats with plantar incision, mechanical withdrawal threshold. The class given is in vivo, rat. To be noted: for effect on withdrawal thresholds: VEH-pre-treated injured rats, 6 h and 1 day after injury. The method, then: In all experiments, the oligodeoxynucleotide (ODN) IMT504, with sequence 5′-[…]-3′ (SEQ ID No 1) was used. The HPLC-grade phosphorothioate ODN (Biosynthesis Inc., Lewisville, Tex., USA) was suspended in sterile saline solution (VEH, 0.9% NaCl; 20 mg/ml; storage concentration) and assayed for LPS contamination. Working concentration doses (6 mg/kg) were obtained by additional dissolving in sterile VEH. The ODN was administered subcutaneously, at a final volume of 200-300 μl, depending on animal weight.
Experiments addressing the opioid sparing effects of IMT504 included the subcutaneous (s.c.) injection of morphine hydrochloride trihydrate (Neocalmans, 10 mg/ml, Soubeiran Chobet, Buenos Aires, Argentina) at three different concentrations (1, 3 or 10 mg/kg, dissolved in sterile distilled water).
The rat hind paw plantar incision model of postoperative pain was used as previously described [Brennan, T. J., E. P. Vandermeulen, and G. F. Gebhart, Characterization of a rat model of incisional pain. Pain, 1996. 64(3): p. 493-501. Briefly, rats were anesthetized using isoflurane (5% induction, 2.5% maintenance, 0.8 l/min O2 flow rate; Piramal Healthcare, UK) and the plantar aspect of the right hind paw was disinfected with povidone iodine. A 1.0-cm longitudinal incision was made 0.5 cm from the end of the heel. The underlying flexor muscle was also incised longitudinally, allowing the muscle origin and insertion to remain intact. After hemostasis by gentle pressure, the skin was closed with sutures of 5-0 nylon.
Rats were divided into injured rats receiving IMT504 (6 mg/kg, dissolved in VEH) or VEH alone, 48h and 24 h prior to surgery. These groups were further subdivided into: 1) Rats followed during 3 days after the injury (n=6 per group), for assessment of pain-like behavior after the co-administration of morphine dissolved in injectable water (vehicle) at different doses, 6 and 24 h after injury; 2) Rats followed during 3 days after the injury (n=6 per group), for assessment of pain-like behavior after the co-administration of injectable water (vehicle) alone, 6 and 24 h after injury; 3) Rats followed during 21 days (n=8), for analysis of the administration of naloxone, 3 days after injury.
Mechanical withdrawal thresholds were assessed by using von Frey nylon monofilaments of different bending forces (1.4, 2, 6, 8, 10, 15 and 26 g; Stoelting Inc., Wooddale, USA) and the modified up-down method of Dixon, as described by Chaplan and cols. (Chaplan, S. R., et al., Quantitative assessment of tactile allodynia in the rat paw. J Neurosci Methods, 1994. 53(1): p. 55-63) , to establish the 50% withdrawal threshold. Results were obtained using the formula: 50% g threshold=[…], where Xf=value (in log units) of the final von Frey hair used; k=tabular value for the pattern of positive/negative responses; and […] difference (in log units) between stimuli. Mechanical withdrawal thresholds were tested 48 h before surgery (basal responses), and 6 h, 1, 3, 7, 14 and 21 days after injury.
A dose-response experiment to evaluate the effect of the s.c. administration of morphine at different doses (10, 3 and 1 mg/kg), 6 h or 1 day after injury, in VEH- or IMT504-treated rats (time-points were chosen based on the fact that a certain degree of mechanical withdrawal threshold alterations was still present in IMT504-treated rats was done, which allowed to test if within this therapeutic window, it was possible to fully revert pain-like behavior using smaller morphine doses). […]

In the case of `C=CCN1CC[C@]23c4c5ccc(O)c4O[C@H]2C(=O)CC[C@@]3(O)[C@H]1C5` [naloxone, naloxone hydrochloride, reference compound], the “withdrawal threshold 15 and 30 min after naloxone” value in assay [1] is “drastic and significant decrease in their withdrawal threshold”.

With `CN1CC[C@]23c4c5ccc(O)c4O[C@H]2[C@@H](O)C=C[C@H]3[C@H]1C5.Cl.O.O.O` [morphine, morphine hydrochloride trihydrate, reference compound], the “time after injection free of pain-like behavior” value in assay [2] (VEH rats receiving 10 mg morphine) fell in the range of 90 to 180 min. Also, the “time after administration with fully reversed pain-like behavior” value in assay [2] (VEH rats receiving 1 or 3 mg morphine, both time-points) worked out at 60 min. Further, the “effect on withdrawal thresholds” value is “very effective in increasing withdrawal thresholds” in assay [2] (morphine 10 mg/kg s.c.); “milder and comparable effects” in assay [2] (morphine 3 and 1 mg/kg s.c.).
